Laboratory results taken from patent US4061637A, “Certain 4-aryl-5-(4-phenylpiperazino)alkyl-4-thiazolin-2-ones” (priority 1974, dated 1977).
Counter-ions that a name gives are not always drawn. Like-named read-outs stand apart in the source and are kept apart here.

Tests used:
[1] = Pinching the tail of the mouse (systemic analgesic activity); assay type: in vivo; conditions: po, 0.5 h; for inhibition in vivo at 200 mg/kg: 200 mg/kg os; for inhibition in vivo at 100 mg/kg: 100 mg/kg os
Experimental: To evaluate the analgesic activity, the method described by Bianchi and colleagues (Brit. J. Pharmacol., 9, 280, 1954) was followed which consists of applying an arterial pincer to the base of the tail in animals treated orally 30 minutes previously with the drug under examination, observing that the control animals react to the pain by squealing.

[2] = Ulcers by constriction (stress) in the rat; assay type: in vivo; conditions: 4 h; for responders at 30 mg/kg / responders at 10 mg/kg: read-out: Anti-ulcer activity, ulcers by stress in the rat, Protected rats %; for inhibition in vivo at 30 mg/kg / inhibition in vivo at 10 mg/kg: read-out: Anti-ulcer activity, ulcers by stress in the rat, Reduction in ulcers %; for responders at 10 mg/kg / inhibition in vivo at 10 mg/kg: 10 mg/kg ip
Experimental: The method described by Rossi and colleagues (Compt. Rend. Soc. Biol., 150, 2124, 1956) was followed in which the formation of gastric ulcers is induced by immobilising the animal, in a state of fast for 48 hours, in a net for a period of 4 hours.
The protection given by treatment with the drug under examination before the beginning of the constriction period is evaluated by counting both the ulcers and the number of subjects without ulcers.

[3] = Carrageen oedema in the conscious rat (anti-inflammatory activity); assay type: in vivo; conditions: for ED30: 1 h, ip, one hour before carrageen, read-out: Anti-inflammatory activity carrageenin oedema rat ED30
Experimental: Anti-inflammatory activity was evaluated by the method of Winter and colleagues (Proc. Soc. Exp. Biol., 111, 544, 1962) by endoperitoneally injecting the product under examination one hour before inducing oedema by injecting 0.05 ml. of a 1% suspension of carrageen (intradermally into the plantar portion of a rear paw).
The difference between the volume of the paw determined plethysmographically one hour before and three hours after the carrageen gives a quantitative estimate of the activity of the product tested. Where possible, the ED30 was calculated.

[4] = tested on: nor-adrenalin; test: Antagonism towards a lethal dose of nor-adrenalin in the rat (α-adrenolytic activity); assay type: in vivo; conditions: for ED50: po, 1 h, read-out: α-adrenolytic activity lethal NA rat ED50
Experimental: Antagonism towards a lethal dose of nor-adrenalin in the rat
The animals are treated with a dose of nor-adrenalin (0.5 mg/kg) which is 100% lethal in animals. The activity is calculated by the number of animals protected from death by prior administration of the drug under examination one hour before the agonist. Where possible the ED50 was calculated.

[5] = Antagonism towards electric shock convulsions in the mouse; assay type: in vivo; conditions: po, 0.5 h, read-out: Anti-convulsion activity, electric shock, mouse, % att.; for inhibition in vivo at 200 mg/kg: 200 mg/kg os; for inhibition in vivo at 100 mg/kg: 100 mg/kg os
Experimental: This is evaluated by observing the protection given by pretreatment with the drug (30 minutes) against tonic convulsions obtained by applying a 35 volt current to the eyeballs.

[6] = Cataleptic activity in the mouse; assay type: in vivo; conditions: for ED50: po, read-out: Cataleptic activity mouse ED50
[7] = Inhibition of spontaneous motility in the mouse; assay type: in vivo; conditions: for ED50: po, 0.5 h, read-out: Spontaneous motility inhibition mouse ED50
Experimental: This is evaluated by an actophotometric method, which consists of placing the mice, 30 minutes after oral treatment with the drug or the carrier, in a cage provided with a photoelectric cell counter and counting the number of times the photoelectric cell is passed during a 10 minute stay.

[8] = Acute toxicity under LD50 mouse; conditions: in vivo, ip
[9] = mouse, os, 30 minutes after treatment
[10] = rat, os, one hour before nor-adrenalin 0.5 mg/kg

SMILES | inhibition in vivo at 200 mg/kg ([1]; mouse, 30 minutes) [%] | responders at 30 mg/kg ([2]; rat, 30 mg/kg ip) [%] | inhibition in vivo at 30 mg/kg ([2]; rat, 30 mg/kg ip) [%] | Anti-inflammatory activity carrageenin oedema rat, percentage activity (ED30 lacking) ([3]; 200 mg/kg ip) [%] | ED50 ([4]; Rattus norvegicus) [mg/kg] | inhibition in vivo at 200 mg/kg ([5]; mouse, 35 volt) [%] | ED50 ([6]; mouse, os) [mg/kg] | ED50 [7, 9] [mg/kg] | LD50 [8] [mg/kg] | ED30 [3] [mg/kg] | responders at 10 mg/kg ([2]; rat) [%] | inhibition in vivo at 10 mg/kg ([2]; rat) [%] | other results
O=c1[nH]c(-c2ccc(F)cc2)c(CCN2CCN(c3ccccc3)CC2)s1 [LR 599, 4-p-fluorophenyl-5-β-(N'-phenylpiperazino)ethyl-4-thiazolin-2-one] | 30 | 20 | 48 | 20 | 45 | 0 | 200 | 69.2 | > 1000 |  |  |  | 
O=c1[nH]c(-c2ccc(F)cc2)c(CCN2CCC(O)(c3ccc(Cl)cc3)CC2)s1 [LR 613, 4-p-fluorophenyl-5-β-[(4'-hydroxy-4'-p-chlorophenyl)-piperidino]-ethyl-4-thiazolin-2-one hydrochloride] |  |  |  |  |  |  |  |  | 300 |  |  |  | inhibition in vivo at 60 mg/kg ([1]; Mus musculus, read-out: Systemic analgesic activity, tail pinching in mouse, %): 10%; responders at 30 mg/kg ([2]; Rattus norvegicus, ip): 60%; inhibition in vivo at 30 mg/kg ([2]; Rattus norvegicus, ip): 80%; Anti-inflammatory activity carrageenin oedema rat, percentage activity (ED30 lacking) ([3]; 60 mg/kg ip): 15.2%; α-adrenolytic activity lethal NA rat, percentage activity (ED50 lacking) ([4]; rat, 15 mg/kg os): 20%; inhibition in vivo at 60 mg/kg ([5]; Mus musculus): 10%; ED50 ([6]; Mus musculus): 32.4 mg/kg; ED50 ([7]; Mus musculus): 18 mg/kg
CN(CCc1ccccc1)CCc1sc(=O)[nH]c1-c1ccc(F)cc1.O=C(O)/C=C\C(=O)O [LR 616, 4-p-fluorophenyl-5-β-(N-methylphenylethylamino)ethyl-4-thiazolin-2-one maleate] |  | 10 | 0 |  |  |  |  | 40 | 225 | 54 |  |  | inhibition in vivo at 40 mg/kg ([1]; mouse, 40 mg/kg os, 30 minutes): 0%; ED50 [4, 10]: 5.5 mg/kg; inhibition in vivo at 40 mg/kg ([5]; mouse, 40 mg/kg os, 35 volt): 0%; Cataleptic activity mouse, percentage activity (ED50 lacking) ([6]; mouse, 40 mg/kg os): 0%
CN(CCc1ccccc1)CCc1sc(=O)[nH]c1-c1ccc(Cl)cc1.O=C(O)/C=C\C(=O)O [LR 628, 4-p-chlorophenyl-5-β-(N-methylphenylethylamino)ethyl-4-thiazolin-2-one maleate] |  | 0 | 0 |  |  |  |  | 100 | 400 | 35 |  |  | inhibition in vivo at 100 mg/kg ([1]; mouse, 30 minutes): 0%; ED50 [4, 10]: 8 mg/kg; inhibition in vivo at 100 mg/kg ([5]; mouse, 35 volt): 0%
CN(CCc1ccccc1)CCc1sc(=O)[nH]c1-c1ccccc1.O=C(O)/C=C\C(=O)O [LR 630, 4-phenyl-5-β-(N-methylphenylethylamino)ethyl-4-thiazolin-2-one maleate] |  | 10 | 0 |  |  |  | 180 | 60 | 750 | 145 |  |  | inhibition in vivo at 180 mg/kg ([1]; mouse, 180 mg/kg os, 30 minutes): 0%; ED50 [4, 10]: 16 mg/kg; inhibition in vivo at 180 mg/kg ([5]; mouse, 180 mg/kg os, 35 volt): 10%
O=c1[nH]c(-c2ccccc2)c(CCN2CCN(c3ccccc3)CC2)s1 [LR 637, 4-phenyl-5-β-(N'-phenylpiperazino)ethyl-4-thiazolin-2-one] | 30 |  |  | 11.6 | 18 | 20 | 200 | 200 | 1000 |  | 57 | 86 | 
O=c1[nH]c(-c2ccc(Cl)cc2)c(CCN2CCN(c3ccccc3)CC2)s1 [LR 638, 4-p-chlorophenyl-5-β-(N'-phenylpiperazino)ethyl-4-thiazolin-2-one] | 10 |  |  | 14 |  | 10 | 200 | 200 | > 1000 |  | 60 | 63 | α-adrenolytic activity lethal NA rat, percentage activity (ED50 lacking) ([4]; rat, 50 mg/kg os): 0%
COc1ccc(-c2[nH]c(=O)sc2CCN2CCN(c3ccccc3)CC2)cc1 [LR 639, 4-p-methoxyphenyl-5-β-(N'-phenylpiperazino)ethyl-4-thiazolin-2-one] | 0 |  |  | 8.1 | 45 | 0 | 88 | 33 | > 1000 |  | 30 | 28 | 
O=c1[nH]c(-c2ccc(F)cc2)c(CCN2CCC3(CC2)OCCCCO3)s1 [LR 648, 4-p-fluorophenyl-5-β-[7,12-dioxa-3-azaspiro[5,6]-dodec-3-yl]-ethyl-4-thiazolin-2-one hydrochloride] |  |  |  |  |  |  |  |  | 125 |  | 10 | 32 | inhibition in vivo at 26 mg/kg ([1]; mouse, 26 mg/kg os, 30 minutes): 0%; α-adrenolytic activity lethal NA rat, percentage activity (ED50 lacking) ([4]; rat, 7 mg/kg os): 0%; inhibition in vivo at 26 mg/kg ([5]; mouse, 26 mg/kg os, 35 volt): 20%; Spontaneous motility inhibition mouse, percentage activity (ED50 lacking) ([7]; mouse, 26 mg/kg os): 20%
Cn1c(-c2ccc(F)cc2)c(CCN2CCN(c3ccccc3)CC2)sc1=O [LR 652, 3-methyl-4-p-fluorophenyl-5-β-(N'-phenylpiperazino)-ethyl-4-thiazolin-2-one] | 0 | 50 | 68 |  | 13.3 | 40 | 52.4 | 23 | > 1000 | 163 |  |  | 
CC(=O)n1c(-c2ccc(F)cc2)c(CCN2CCN(c3ccccc3)CC2)sc1=O [LR 653, 3-acetyl-4-p-fluorophenyl-5-β-(N'-phenylpiperazino)-ethyl-4-thiazolin-2-one] |  |  |  |  | 12.8 |  | 80 | 11.6 | 420 |  |  |  | inhibition in vivo at 100 mg/kg ([1]; mouse, 30 minutes): 20%; Anti-inflammatory activity carrageenin oedema rat, percentage activity (ED30 lacking) ([3]; 100 mg/kg ip): 25.4%; inhibition in vivo at 100 mg/kg ([5]; mouse, 35 volt): 20%
O=c1[nH]c(-c2ccc(Cl)cc2)c(CN2CCCCC2)s1 [LR 659, 4-p-chlorophenyl-5-piperidinomethyl-4-thiazolin-2-one] | 0 |  |  |  |  | 30 |  |  | > 1000 |  | 50 | 50 | 
O=c1[nH]c(-c2ccc(Cl)cc2)c(CN2CCN(c3ccccc3)CC2)s1 [LR 660, 4-p-chlorophenyl-5-(N'-phenylpiperazino)methyl-4-thiazolin-2-one] |  |  |  |  |  | 20 |  | 100 | > 1000 |  | 50 | 50 | 
